Structures can show the parent of a compound that is named as a salt.
Legend:
[1] = system: H1838 cells (human non-small cell lung cancer cell line); assay: Inhibition of cell proliferation, xCelligence cell index; type: cell-based; conditions: NCI-H1838, 72 hr post compound treatment, read-out: calculated IC50
Description: The biological activity of compounds disclosed herein was monitored and profiled using the Real-Time Cell Electronic Sensing (RT-CES®) system from ACEA Biosciences, Inc. The RT-CES system utilizes cell-substrate impedance technology to monitor cellular behavior inside tissue culture wells in a microtiter plate format. The technology features in the integration of molecular and cell biology with microelectronics and is based on the electronic detection of biological assay process. […]
For measurement of cell-substrate or cell-electrode impedance using RT-CES technology, microelectrodes having appropriate geometries are fabricated onto the bottom surfaces of microtiter plate or similar device, facing into the wells. […] When there are changes to the biological status of the cells analogue electronic readout signals are measured automatically and in real time, and are converted to digital signals for processing and for analysis. In a RT-CES system, a cell index (arbitrary representation of change in impedance) is automatically derived and provided based on measured electrode impedance values. […]
To quantify cell status based on the measured cell-electrode impedance, a parameter termed Cell Index is derived. Cell Index is a quantitative measure of the status of the cells in an electrode-containing well. […]

[2] = system: MKN45 human gastric-intestinal cancer xenograft; assay: In vivo antitumor efficacy, MKN45 xenograft; design: species or system BALB/c immunodeficient nude mice; conditions: for Tumor inhibition rate %: by tumor weight
Experimental: To evaluate the in vivo anticancer efficacy of COMPOUND O, MKN45 human gastric-intestinal cancer xenograft models in immunodeficient nude mice was tested. All the mouse models are maintained in the Pharmacology Lab of ACEA Bio (Hangzhou) CO., Ltd. The BALB/c immunodeficient nude mice were purchased from Shanghai SLAC Laboratory Animal, certification number: SCXKA (Shanghai) 2007-0005. The mouse weight was 19±1 g. Only female mice were used in this study. The numbers of animals tested were as follow: 7 for each dose group, 7 for positive control group and 7 for negative control group.
Test Control. For negative control, each mouse was administered orally with the solvent only having the same volume and same concentration as those used in COMPOUND O test, 120 mg/kg once every other day (qod) for 18 days. […]
Preparation an Administration of Test Compounds. COMPOUND O was dissolved in 25% phospholipid (S75) and 75% polyvinylpyrrolidone (PL-PVP) then further diluted to 8 mg/ml in 0.9% NaCl aqueous solution. Different dosages of COMPOUND O between 120 mg/kg qod (once every other day) and 160 mg/kg q3d (once every 3 days) were used in the study.
Preparation of tumor cells for transplantation and determination of compound efficacy. To prepare the tumor cells for MKN45 human gastric-intestinal cancer xenograft model, the fast grown tumors were first removed from the transplanted tumor mice, the tumor tissues were dissected to 1-2 mm^3 in dimension. These micro-tumors were then subcutaneously injected into the auxiliary region (right-side) of each mouse. After the inoculated tumors grew to a certain size (60-80 mm^3) in the nude mice, the mice were randomized into different dosing groups and subjected to compound treatment. Between 2-3 weeks after the first dosing, mice were sacrificed and the transplanted tumors were removed from experimental mice. Each removed solid tumor was weighed; the tumor inhibition rate in each dosage group was calculated according to the formula:
Tumor inhibition rate %=(average weight of tumor in the negative control group−average weight of tumor in the compound treated group)/average weight of tumor in the negative control group×100 (1)
All used materials including animal food, animal cage, supporting materials and apparatus contacted by animals, were high-pressure sterilized. Nude mice were maintained in laminar flow shelves under SPF condition. After tumor transplantation, mouse weight and tumor size in each compound dosage group were dynamically monitored and plotted. The tumor size was determined by measuring the major axis (a) and minor axis (b) of the tumor, and tumor volume was calculated according to the formula: […]

[3] = system: microtubule network in A549 cells; assay: Microtubule organization in A549 cells; type: cell-based, human; conditions: 20 hr treatment

## CCc1ccc(Nc2nc(-c3c(C)nc4sccn34)cs2)cc1 [COMPOUND O, 2-(4-ethylphenyl)amino-4-(6-methylimidazo[2,1-b]thiazol-5-yl)-thiazole monohydrobromide]
[1]
  IC50: 11.8 nM
[2]; 120 mg/kg ig × 9 qod
  TV inhibition rate % T/C: 44.1%
  Tumor volume (mm^3) End: 905 ± 403 mm^3
  Tumor volume (mm^3) Start: 69.58 ± 11 mm^3
  Tumor weight (g) x ± SD: 0.835 ± 0.41 g
  Tumor inhibition rate %: 58.0%
[2]; 160 mg/kg ig × 6 q3d
  TV inhibition rate % T/C: 45.3%
  Tumor volume (mm^3) End: 904 ± 347 mm^3
  Tumor volume (mm^3) Start: 67.75 ± 25 mm^3
  Tumor weight (g) x ± SD: 0.881 ± 0.467 g
  Tumor inhibition rate %: 55.7%
[3]
  effect on microtubule organization: findings similar to those of vincristine-induced microtubule changes

## COc1cc([C@@H]2c3cc4c(cc3[C@@H](O[C@@H]3O[C@@H]5CO[C@@H](C)O[C@H]5[C@H](O)[C@H]3O)[C@H]3COC(=O)[C@H]23)OCO4)cc(OC)c1O [Etoposide, reference compound]
[2]; 50 mg/kg ig × 6 q3d
  TV inhibition rate % T/C: 56.9%
  Tumor volume (mm^3) End: 1164 ± 483 mm^3
  Tumor volume (mm^3) Start: 69.46 ± 16 mm^3
  Tumor weight (g) x ± SD: 1.024 ± 0.345 g
  Tumor inhibition rate %: 48.4%

## CC(=O)O[C@H]1C(=O)[C@@]2(C)[C@H]([C@H](OC(=O)c3ccccc3)[C@]3(O)C[C@H](OC(=O)[C@H](O)[C@@H](NC(=O)c4ccccc4)c4ccccc4)C(C)=C1C3(C)C)[C@]1(OC(C)=O)CO[C@@H]1C[C@@H]2O [paclitaxel]
[3]
  effect on microtubule organization: microtubule polymerization with an increasing in the density of cellular microtubules

## CC[C@]1(O)C[C@H]2CN(CCc3c([nH]c4ccccc34)[C@@](C(=O)OC)(c3cc4c(cc3OC)N(C=O)[C@H]3[C@@](O)(C(=O)OC)[C@H](OC(C)=O)[C@]5(CC)C=CCN6CC[C@]43[C@@H]65)C2)C1 [vincristine]
[1]
  IC50: 3.16 nM

Source: patent publication US20110207751A1, “HETEROCYCLIC COMPOUNDS AND USES AS ANTICANCER AGENTS” (priority 2010, published 2011)
